Among the data in patent US10906915B2, “Substituted pyrazoloazepin-4-ones and their use as phosphodiesterase inhibitors” (LEO Pharma A/S, priority 2016, dated 2021) are IC50 values, retold here.

Some results are limits rather than exact numbers.

Chain of human PDE4D catalytic domain (Q08499 380-740 limits assumed): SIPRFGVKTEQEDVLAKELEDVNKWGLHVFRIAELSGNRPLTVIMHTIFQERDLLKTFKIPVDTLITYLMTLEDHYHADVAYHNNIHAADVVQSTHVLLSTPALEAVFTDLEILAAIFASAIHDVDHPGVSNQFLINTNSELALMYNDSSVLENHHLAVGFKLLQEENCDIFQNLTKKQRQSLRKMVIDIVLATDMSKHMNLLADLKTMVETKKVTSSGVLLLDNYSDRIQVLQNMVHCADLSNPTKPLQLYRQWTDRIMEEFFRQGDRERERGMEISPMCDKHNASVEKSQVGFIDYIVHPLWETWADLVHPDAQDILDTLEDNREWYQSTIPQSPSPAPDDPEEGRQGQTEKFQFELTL

In one test the target is human PDE4D catalytic domain (UniProt no. Q08499) (Homo sapiens (Human), UniProt Q08499). The experiment in a line: PDE4 assay (TR-FRET, FAM-cAMP cleavage). The class given is biochemical. The conditions noted are these: human PDE4D catalytic domain; molar concentration giving 50% inhibition of substrate cleavage; read-out: PDE4 IC50 range. Summed up:
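PDE4D catalytic domain ([…]) was incubated with unlabelled cAMP plus FAM-cAMP and titrated compound, stopped with binding buffer of metal-ion nanoparticles and Tb donor. AMP generation read by TR-FRET; IC50 as 50% inhibition of cleavage versus controls, reported as nM ranges.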
On the technique in general: In TR-FRET formats the signal depends on donor and acceptor labels being close together.
By IC50 is commonly meant the concentration needed to halve the response being measured. With `CCc1nn(C[C@@H](C)COC(=O)c2ccc(C(=O)NC(C)C)cc2)c2c1C(=O)NCC1(CCOCC1)C2` [Example 256, [(2R)-3-(3-ethyl-4-oxo-spiro[6,8-dihydro-5H-pyrazolo[4,3-c]azepine-7,4′-tetrahydropyran]-1-yl)-2-methyl-propyl] 4-(isopropylcarbamoyl)benzoate], the half-inhibitory concentration (IC50) was less than 100 nM.
On the same count and under the same terms, the figure for `CCc1nn(C[C@@H](C)COC(=O)c2ccc(C(=O)N3CCCC3)cc2)c2c1C(=O)NCC1(CCOCC1)C2` [Example 257, [(2R)-3-(3-ethyl-4-oxo-spiro[6,8-dihydro-5H-pyrazolo[4,3-c]azepine-7,4′-tetrahydropyran]-1-yl)-2-methyl-propyl] 4-(pyrrolidine-1-carbonyl)benzoate] is less than 100 nM.
Still for that read-out and setting: the result for `CCc1nn(C[C@@H](C)COC(=O)c2ccc(C(=O)N3CCCCC3)cc2)c2c1C(=O)NCC1(CCOCC1)C2` [Example 258, [(2R)-3-(3-ethyl-4-oxo-spiro[6,8-dihydro-5H-pyrazolo[4,3-c]azepine-7,4′-tetrahydropyran]-1-yl)-2-methyl-propyl] 4-(piperidine-1-carbonyl)benzoate] reads less than 100 nM; that for `CCc1nn(C[C@@H](C)COC(=O)c2ccc(C(=O)N3CCNCC3)cc2)c2c1C(=O)NCC1(CCOCC1)C2` [Example 259, [(2R)-3-(3-ethyl-4-oxo-spiro[6,8-dihydro-5H-pyrazolo[4,3-c]azepine-7,4′-tetrahydropyran]-1-yl)-2-methyl-propyl] 4-(piperazine-1-carbonyl)benzoate], less than 100 nM; that for `CCc1nn(C[C@@H](C)COC(=O)c2ccc(C(=O)N3CCOCC3)cc2)c2c1C(=O)NCC1(CCOCC1)C2` [Example 260, [(2R)-3-(3-ethyl-4-oxo-spiro[6,8-dihydro-5H-pyrazolo[4,3-c]azepine-7,4′-tetrahydropyran]-1-yl)-2-methyl-propyl] 4-(morpholine-4-carbonyl)benzoate], less than 100 nM.
Turning to `CCc1nn(C[C@@H](C)COC(=O)c2ccc(C(=O)N3CCN(C)CC3)cc2)c2c1C(=O)NCC1(CCOCC1)C2` [Example 261, [(2R)-3-(3-ethyl-4-oxo-spiro[6,8-dihydro-5H-pyrazolo[4,3-c]azepine-7,4′-tetrahydropyran]-1-yl)-2-methyl-propyl] 4-(4-methylpiperazine-1-carbonyl)benzoate], the IC50 was less than 100 nM.
On to `CCc1nn(C[C@@H](C)COC(=O)c2ccc(C(=O)N3CCN(C(C)=O)CC3)cc2)c2c1C(=O)NCC1(CCOCC1)C2` [Example 262, [(2R)-3-(3-ethyl-4-oxo-spiro[6,8-dihydro-5H-pyrazolo[4,3-c]azepine-7,4′-tetrahydropyran]-1-yl)-2-methyl-propyl] 4-(4-acetylpiperazine-1-carbonyl)benzoate], for which the IC50 is less than 100 nM.

The same test, now with this note: read-out: PDE4 IC50 range.
With `CCc1nn(C[C@@H](C)COC(=O)c2cccc(C(N)=O)c2)c2c1C(=O)NCC1(CCOCC1)C2` [Example 263, [(2R)-3-(3-ethyl-4-oxo-spiro[6,8-dihydro-5H-pyrazolo[4,3-c]azepine-7,4′-tetrahydropyran]-1-yl)-2-methyl-propyl] 3-carbamoylbenzoate], the IC50 was less than 100 nM.
Regarding `CCc1nn(C[C@@H](C)COC(=O)c2cccc(C(=O)NC)c2)c2c1C(=O)NCC1(CCOCC1)C2` [Example 264, [(2R)-3-(3-ethyl-4-oxo-spiro[6,8-dihydro-5H-pyrazolo[4,3-c]azepine-7,4′-tetrahydropyran]-1-yl)-2-methyl-propyl] 3-(methylcarbamoyl)benzoate], the concentration for half-maximal inhibition (IC50) was less than 100 nM.
With `CCNC(=O)c1cccc(C(=O)OC[C@H](C)Cn2nc(CC)c3c2CC2(CCOCC2)CNC3=O)c1` [Example 265, [(2R)-3-(3-ethyl-4-oxo-spiro[6,8-dihydro-5H-pyrazolo[4,3-c]azepine-7,4′-tetrahydropyran]-1-yl)-2-methyl-propyl] 3-(ethylcarbamoyl)benzoate], the IC50 is less than 100 nM.
As to `CCc1nn(C[C@@H](C)COC(=O)c2cccc(C(=O)N(C)C)c2)c2c1C(=O)NCC1(CCOCC1)C2` [Example 266, [(2R)-3-(3-ethyl-4-oxo-spiro[6,8-dihydro-5H-pyrazolo[4,3-c]azepine-7,4′-tetrahydropyran]-1-yl)-2-methyl-propyl] 3-(dimethylcarbamoyl)benzoate], the IC50 is less than 100 nM.
As for `CCc1nn(C[C@@H](C)COC(=O)c2cccc(C(=O)NC(C)C)c2)c2c1C(=O)NCC1(CCOCC1)C2` [Example 267, [(2R)-3-(3-ethyl-4-oxo-spiro[6,8-dihydro-5H-pyrazolo[4,3-c]azepine-7,4′-tetrahydropyran]-1-yl)-2-methyl-propyl] 3-(isopropylcarbamoyl)benzoate], the IC50 is less than 100 nM.
Regarding `CCc1nn(C[C@@H](C)COC(=O)c2cccc(C(=O)N3CCCC3)c2)c2c1C(=O)NCC1(CCOCC1)C2` [Example 268, [(2R)-3-(3-ethyl-4-oxo-spiro[6,8-dihydro-5H-pyrazolo[4,3-c]azepine-7,4′-tetrahydropyran]-1-yl)-2-methyl-propyl] 3-(pyrrolidine-1-carbonyl)benzoate], the IC50 was less than 100 nM.
Take `CCc1nn(C[C@@H](C)COC(=O)c2cccc(C(=O)N3CCCCC3)c2)c2c1C(=O)NCC1(CCOCC1)C2` [Example 269, [(2R)-3-(3-ethyl-4-oxo-spiro[6,8-dihydro-5H-pyrazolo[4,3-c]azepine-7,4′-tetrahydropyran]-1-yl)-2-methyl-propyl] 3-(piperidine-1-carbonyl)benzoate]: the IC50 is less than 100 nM.
Regarding `CCc1nn(C[C@@H](C)COC(=O)c2cccc(C(=O)N3CCNCC3)c2)c2c1C(=O)NCC1(CCOCC1)C2` [Example 270, [(2R)-3-(3-ethyl-4-oxo-spiro[6,8-dihydro-5H-pyrazolo[4,3-c]azepine-7,4′-tetrahydropyran]-1-yl)-2-methyl-propyl] 3-(piperazine-1-carbonyl)benzoate], the IC50 was less than 100 nM.
With `CCc1nn(C[C@@H](C)COC(=O)c2cccc(C(=O)N3CCOCC3)c2)c2c1C(=O)NCC1(CCOCC1)C2` [Example 271, [(2R)-3-(3-ethyl-4-oxo-spiro[6,8-dihydro-5H-pyrazolo[4,3-c]azepine-7,4′-tetrahydropyran]-1-yl)-2-methyl-propyl] 3-(morpholine-4-carbonyl)benzoate], the IC50 is less than 100 nM.
On the same count and under the same terms, the figure for `CCc1nn(C[C@@H](C)COC(=O)c2cccc(C(=O)N3CCN(C)CC3)c2)c2c1C(=O)NCC1(CCOCC1)C2` [Example 272, [(2R)-3-(3-ethyl-4-oxo-spiro[6,8-dihydro-5H-pyrazolo[4,3-c]azepine-7,4′-tetrahydropyran]-1-yl)-2-methyl-propyl] 3-(4-methylpiperazine-1-carbonyl)benzoate] is less than 100 nM; for `CCc1nn(C[C@@H](C)COC(=O)c2cccc(C(=O)N3CCN(C(C)=O)CC3)c2)c2c1C(=O)NCC1(CCOCC1)C2` [Example 273, [(2R)-3-(3-ethyl-4-oxo-spiro[6,8-dihydro-5H-pyrazolo[4,3-c]azepine-7,4′-tetrahydropyran]-l-yl)-2-methyl-propyl] 3-(4-acetylpiperazine-1-carbonyl)benzoate] it is less than 100 nM; for `CCc1nn(C[C@H](C)COC(=O)c2ccccc2)c2c1C(=O)NCC1(CCOCC1)C2` [Example 274, [(2S)-3-(3-ethyl-4-oxo-spiro[6,8-dihydro-5H-pyrazolo[4,3-c]azepine-7,4′-tetrahydropyran]-1-yl)-2-methyl-propyl] benzoate] it is less than 100 nM.
Turning to `CCc1nn(C[C@H](C)COC(=O)c2ccc(C)cc2)c2c1C(=O)NCC1(CCOCC1)C2` [Example 275, [(2S)-3-(3-ethyl-4-oxo-spiro[6,8-dihydro-5H-pyrazolo[4,3-c]azepine-7,4′-tetrahydropyran]-1-yl)-2-methyl-propyl] 4-methylbenzoate], the IC50 was less than 100 nM.
`CCc1nn(C[C@H](C)COC(=O)c2cccc(F)c2)c2c1C(=O)NCC1(CCOCC1)C2` [Example 276, [(2S)-3-(3-ethyl-4-oxo-spiro[6,8-dihydro-5H-pyrazolo[4,3-c]azepine-7,4′-tetrahydropyran]-1-yl)-2-methyl-propyl] 3-fluorobenzoate]: the IC50 was less than 100 nM.
Consider `CCc1nn(C[C@H](C)COC(=O)c2ccc(F)cc2)c2c1C(=O)NCC1(CCOCC1)C2` [Example 277, [(2S)-3-(3-ethyl-4-oxo-spiro[6,8-dihydro-5H-pyrazolo[4,3-c]azepine-7,4′-tetrahydropyran]-1-yl)-2-methyl-propyl] 4-fluorobenzoate], for which the half-maximal inhibitory concentration (IC50) was less than 100 nM.
In the case of `CCc1nn(C[C@H](C)COC(=O)c2cccc(OC)c2)c2c1C(=O)NCC1(CCOCC1)C2` [Example 278, [(2S)-3-(3-ethyl-4-oxo-spiro[6,8-dihydro-5H-pyrazolo[4,3-c]azepine-7,4′-tetrahydropyran]-1-yl)-2-methyl-propyl] 3-methoxybenzoate], the IC50 was less than 100 nM.
On the same count and under the same terms, the result for `CCc1nn(C[C@H](C)COC(=O)c2ccc(Cl)cc2)c2c1C(=O)NCC1(CCOCC1)C2` [Example 279, [(2S)-3-(3-ethyl-4-oxo-spiro[6,8-dihydro-5H-pyrazolo[4,3-c]azepine-7,4′-tetrahydropyran]-1-yl)-2-methyl-propyl] 4-chlorobenzoate] reads less than 100 nM.
Still for that read-out and setting: the figure for `CCc1nn(CC(C)(C)COC(=O)C2CCCC2)c2c1C(=O)NCC1(CCOCC1)C2` [Example 281, [3-(3-ethyl-4-oxo-spiro[6,8-dihydro-5H-pyrazolo[4,3-c]azepine-7,4′-tetrahydropyran]-1-yl)-2,2-dimethyl-propyl] cyclopentanecarboxylate] is less than 100 nM; for `CCc1nn(CC(C)(C)COC(=O)C(CC)CC)c2c1C(=O)NCC1(CCOCC1)C2` [Example 282, [3-(3-ethyl-4-oxo-spiro[6,8-dihydro-5H-pyrazolo[4,3-c]azepine-7,4′-tetrahydropyran]-1-yl)-2,2-dimethyl-propyl] 2-ethylbutanoate] it is less than 100 nM.
